Measured values reported in patent US12551532B2, “Long-acting amylin receptor agonists and uses thereof” (Eli Lilly and Company, priority 2021, dated 2026).

Tests used:
human dendritic cells = type: cell-based
Protocol: MAPPS profiles the MHC-II presented peptides on human dendritic cells treated with tested molecules. CD14+ cells, isolated from the PBMCs of normal human donors, are cultured and differentiated into immature DCs by incubation with IL-4 and GM-CSF. On day 4, culture media is replaced with fresh media containing tested molecules. On day 5, LPS is added to transform the cells into mature DCs. On day 6, cells are lysed in RIPA buffer with protease inhibitors. Immunoprecipitation of MHC-II complexes are performed using biotinylated anti-MHC-II antibody coupled to streptavidin beads. The bound complex is eluted and filtered. The isolated MHC-II peptides are analyzed by a mass spectrometer. Peptide identifications are generated by an internal proteomics pipeline using search algorithms with no enzyme and a bovine/human database with test sequences appended to the database. A KNIME workflow is used to process the identification files from the samples. Peptides identified from the test articles are aligned against the parent sequence of the test molecule. The output is used to determine the percentage of donors displaying MHC-II peptides from regions of the test molecule. Compound II, Compound IV, Compound VI, Compound VIII, a compound representative of U.S. Pat. No. 9,023,789 (hereinafter “Compound '789”), and Pramlintide are tested in the MAPPs assay.

Protocol for CD4+ T cells: This assay assesses the ability of tested antibodies or tested MAPPS peptides to activate CD4+ T cells by inducing cellular proliferation. CD8+ T cell depleted PBMC's are prepared and labeled with CFSE. Each sample is tested with media control, keyhole limpet haemocyanin (KLH; positive clinical benchmark control), tested antibodies, or tested MAPPS peptides. Cultures are incubated for 7 days. On day 7, samples are analyzed by flow cytometry.

MAPPS Assay donors displayed peptides (human dendritic cells): 10/10
MAPPS Assay immunogenicity risk (human dendritic cells): High Risk
Structure (SMILES): CC[C@H](C)[C@H](NC(=O)[C@@H]1CCCN1C(=O)CNC(=O)[C@H](Cc1ccccc1)NC(=O)[C@H](CC(N)=O)NC(=O)[C@H](CC(N)=O)NC(=O)[C@H](CO)NC(=O)[C@H](CO)NC(=O)[C@H](Cc1c[nH]cn1)NC(=O)[C@@H](NC(=O)[C@H](CC(C)C)NC(=O)[C@H](Cc1ccccc1)NC(=O)[C@H](CC(N)=O)NC(=O)[C@H](C)NC(=O)[C@H](CC(C)C)NC(=O)[C@H](CCCNC(=N)N)NC(=O)[C@H](CCC(N)=O)NC(=O)[C@@H](NC(=O)[C@H](C)NC(=O)[C@@H]1CSSC[C@H](NC(=O)[C@@H](N)CCCCN)C(=O)N[C@@H](CC(N)=O)C(=O)N[C@@H]([C@@H](C)O)C(=O)N[C@@H](C)C(=O)N[C@@H]([C@@H](C)O)C(=O)N1)[C@@H](C)O)C(C)C)C(=O)N[C@@H](CC(C)C)C(=O)N1CCC[C@H]1C(=O)N1CCC[C@H]1C(=O)N[C@H](C(=O)N[C@@H](CC(N)=O)C(=O)N[C@H](C(=O)NCC(=O)N[C@@H](CO)C(=O)N[C@@H](CC(N)=O)C(=O)N[C@H](C(=O)N[C@@H](Cc1ccc(O)cc1)C(N)=O)[C@@H](C)O)C(C)C)[C@@H](C)O [Compound XV, reference compound]
T Cell Proliferation Assay: protein, immunogenicity risk (CD4+ T cells): High Risk
T Cell Proliferation Assay: protein, positive donors (CD4+ T cells): (7/7 positive
peptides displayed on MHC-II complexes (human dendritic cells): two peptide clusters that in total span residues 1-34
